Results reported in paper PMC6801819, “Exogenous Iron Increases Fasciocidal Activity and Hepatocellular Toxicity of the Synthetic Endoperoxides OZ78 and MT04” (International Journal of Molecular Sciences, 2019).
Like-named read-outs stand apart in the source and are kept apart here.

Columns and labels:
[1] = set-up: method as in PMID 15318224; conditions: cited from earlier work
F. hepatica [2] = conditions: sheep naturally infected with F. hepatica; cited from earlier work
F. hepatica [3] = system: F. hepatica; set-up: method as in PMID 21316331; conditions: 50 µg/mL; cited from earlier work
[4] = Drug solutions in cell culture medium; format: physicochemical; conditions: from DMSO stock
Description: Stock solutions of the drugs tested were prepared in DMSO 100% (v/v). […] LC-MS measurements confirmed the stability of the compounds (data not shown). Treatments with AS, MT04, or OZ78 (100 or 500 µM) were performed either alone or in combination with 8% (v/v) hemin or FeCl2 solution for 24 h. The final iron concentration used was 122 µM (stock 1.5 mM) based on previous in vitro studies with F. hepatica.

mice = conditions: cited from earlier work

For `O=C(O)C[C@H]1CC[C@]2(CC1)OOC1(O2)C2CC3CC(C2)CC1C3` (stereo partly shown) [OZ78], the mutagenic potential [1] is listed as “no mutagenic potential”, the effect in sheep (F. hepatica [2]) is listed as “no effect” and the “activity against the liver fluke F. hepatica” value (F. hepatica [3]) is listed as “have activity”. For the same compound, the “behaviour of drug solutions in medium” value [4] was “tend to precipitate”.

For `C[C@H]1[C@H](OC(=O)CCC(=O)O)O[C@@H]2O[C@@]3(C)CC[C@H]4[C@H](C)CC[C@@H]1[C@@]24OO3` [AS, artesunate, reference compound], the LD50 (mice; single intramuscular administration) is given as 475 mg/kg and the LD50 (mice; single intravenous administration) is given as 520 mg/kg.

For `O=C(O)CC1CCC2(CC1)OOC1(OO2)C2CC3CC(C2)CC1C3` (stereo not shown) [MT04], the egg count reduction (F. hepatica [2]) is listed as 98.5%, the worm burden reduction (F. hepatica [2]) is listed as 92% and the “activity against the liver fluke F. hepatica” value (F. hepatica [3]) is listed as “have activity”. The “behaviour of drug solutions in medium” value [4] was “tend to precipitate”.
